# What was measured:
# [1] = target: T1, IGF1R (Mus musculus, UniProt Q60751); experiment: IGF1R expression by western blot after picropodophyllin treatment; assay type: cell-based; conditions: day 10, after 2-day treatment with 2 μM picropodophyllin, both miR-223+/+ and miR-223-/- cultures
# T1 construct: endogenous in cells; host or cells: bone marrow-derived eosinophil (progenitor) cultures from miR-223+/+ and miR-223-/- mice
# Procedure: Cells were rapidly washed in phosphate buffered saline and lysed in M-PER mammalian protein extraction reagent (Pierce, Rockford, Ill.), according to the manufacturer's protocol. Protease inhibitor cocktails (Pierce) and phosphatase inhibitor cocktails (Pierce) were added to the M-PER protein extraction reagent immediately before lysis. Western blot analysis was performed, as described in a previous protocol (Lim, E. et al. J. Biol. Chem. 286:13193-204 (2011)). The assay was conducted using an anti-IGF1R antibody (Cell Signaling Technology, Danvers, Mass.) and an anti-GAPDH antibody (Abcam, Cambridge, UK).
# (§1) Bone marrow-derived eosinophils were re-suspended at a concentration of 1×10^6 cells/ml and treated with DMSO or 2 μM of picropodophyllin at day 8 (Yin, S. et al. Neuro. Oncol. 12:19-27 (2010)). Cell growth was determined by cell counting using a hemacytometer on day 10 and day 12. Cell lysates were collected on day 10, and levels of IGF1R expression were determined by western blot.
# [2] = system: bone marrow-derived eosinophils; experiment: Cell growth after picropodophyllin treatment, cell counting using a hemacytometer; assay type: cell-based, mouse; conditions: for growth of miR-223+/+ and miR-223-/- eosinophil cultures: 2 μM picropodophyllin from day 8, counted day 10 and day 12, vs DMSO
# Procedure: Bone marrow cells were collected from femurs and tibia of the mice, and the stem/progenitor cell-enriched low-density fraction was isolated by gradient centrifugation using the Histopaque 1083 (Sigma), according to the manufacturer's protocol. The low density fraction of bone marrow cells were cultured in IMDM with 10% FBS, 100 U/ml penicillin, and 100 μg/ml streptomycin supplemented with 100 ng/mL stem cell factor and 100 ng/mL FLT-3 ligand (Peprotech) from day 0 to day 4.
# The stem cell factor and FLT-3 ligand were replaced with 10 ng/mL IL-5 on day 4, and the cells were cultured for an additional 10-12 days in the presence of IL-5 (Dyer, K. et al. J. Immunol. 181:4004-9 (2008)). The culture media was changed every other day, and cells were counted and concentration was adjusted to 1×10^6/mL during each media change. Eosinophil maturity was assessed by FACS staining for CCR3 and Siglec-F and/or Diff-Quik (Fisher Scientific) staining of cytospin preparations. Eosinophil progenitor growth was assessed by counting the cells every 2 days using a hemacytometer.
# as §1
# [3] = system: human bronchial epithelial cells; experiment: miRNA expression in IL-13-stimulated human bronchial epithelial cells (microarray, qPCR); assay type: cell-based; conditions: normal human bronchial epithelial cells, after 24 and 48 hours of IL-13 stimulation, normalized to U6
# Procedure: (§2) Human esophageal epithelial cells derived from human patient biopsies were cultured, as described in a previous protocol (Blanchard, C. et al. J. Allergy Clin. Immunol. 120:1292-300 (2007)). The human bronchial epithelial cell line HBEC was cultured as previously described (Ramirez, R. et al. Cancer Res. 64:9027-34 (2004)). The normal human bronchial epithelial cells (Lonza, Basel, Switzerland) were cultured, as described in a previous protocol (Kariyawasam, H. et al. J. Allergy Clin. Immunol. 124:454-462 (2009)). The U937 monocytes and Jurkat T cells were cultured in RPMI 1640 medium (Fisher Scientific) supplemented with 10% FBS, 100 U/mL penicillin, and 100 μg/ml streptomycin. […]
# (§3) Human esophageal epithelial cells and bronchial epithelial cells were stimulated with media or 100 ng/mL IL-13 for 24 hours. […] RNA quality was assessed using the 2100 bioanalyzer (Agilent Technologies), and only samples with RNA integrity number >8 were used. […]
# (§4) The miRNAs differentially regulated between unstimulated and IL-13 stimulated samples were identified by normalizing the expression data to the average of two endogenous control probes, namely RNU44 and RNU48, then filtered on cycle threshold values <35 and at least a 2-fold change between unstimulated and IL-13-stimulated samples. Statistical significance was determined at p<0.05 with Benjamini Hochberg false discovery rate correction. […]
# [4] = system: human esophageal epithelial cells; experiment: miRNA expression in IL-13-stimulated human esophageal epithelial cells (microarray, qPCR); assay type: cell-based; conditions: after 24 and 48 hours of IL-13 stimulation, normalized to U6
# Procedure: as §2, §3, §4
# [5] = system: miR-375; experiment: qRT-PCR of miR-375 in esophageal biopsies of EE patients; assay type: in vivo, human; conditions: EE patients that responded to therapy, qPCR normalized to U6
# From the text: Patients were selected without regard to age, race, or sex. Normal patients presented to the clinic with symptoms consistent with gastroesophageal reflux disease or EE, but the endoscopic and histologic findings for these patients were normal. […] The active chronic esophagitis patients had eosinophil counts of 1-15 per 400×hpf in the esophageal biopsies. Patients with systemic or swallowed topical glucocorticoid use were excluded from the selection of active EE or active chronic esophagitis patients.
# Levels of miRNA expression were measured quantitatively by using the TaqMan MicroRNA Assays (Applied Biosystems), following the manufacturer's protocol. The expression levels were normalized to the U6 endogenous control. Relative expression was calculated as previously described (Lu, T. et al. J. Immunol. 182:4994-5002 (2009)).
# T1 sequence (Q60751 31-1373): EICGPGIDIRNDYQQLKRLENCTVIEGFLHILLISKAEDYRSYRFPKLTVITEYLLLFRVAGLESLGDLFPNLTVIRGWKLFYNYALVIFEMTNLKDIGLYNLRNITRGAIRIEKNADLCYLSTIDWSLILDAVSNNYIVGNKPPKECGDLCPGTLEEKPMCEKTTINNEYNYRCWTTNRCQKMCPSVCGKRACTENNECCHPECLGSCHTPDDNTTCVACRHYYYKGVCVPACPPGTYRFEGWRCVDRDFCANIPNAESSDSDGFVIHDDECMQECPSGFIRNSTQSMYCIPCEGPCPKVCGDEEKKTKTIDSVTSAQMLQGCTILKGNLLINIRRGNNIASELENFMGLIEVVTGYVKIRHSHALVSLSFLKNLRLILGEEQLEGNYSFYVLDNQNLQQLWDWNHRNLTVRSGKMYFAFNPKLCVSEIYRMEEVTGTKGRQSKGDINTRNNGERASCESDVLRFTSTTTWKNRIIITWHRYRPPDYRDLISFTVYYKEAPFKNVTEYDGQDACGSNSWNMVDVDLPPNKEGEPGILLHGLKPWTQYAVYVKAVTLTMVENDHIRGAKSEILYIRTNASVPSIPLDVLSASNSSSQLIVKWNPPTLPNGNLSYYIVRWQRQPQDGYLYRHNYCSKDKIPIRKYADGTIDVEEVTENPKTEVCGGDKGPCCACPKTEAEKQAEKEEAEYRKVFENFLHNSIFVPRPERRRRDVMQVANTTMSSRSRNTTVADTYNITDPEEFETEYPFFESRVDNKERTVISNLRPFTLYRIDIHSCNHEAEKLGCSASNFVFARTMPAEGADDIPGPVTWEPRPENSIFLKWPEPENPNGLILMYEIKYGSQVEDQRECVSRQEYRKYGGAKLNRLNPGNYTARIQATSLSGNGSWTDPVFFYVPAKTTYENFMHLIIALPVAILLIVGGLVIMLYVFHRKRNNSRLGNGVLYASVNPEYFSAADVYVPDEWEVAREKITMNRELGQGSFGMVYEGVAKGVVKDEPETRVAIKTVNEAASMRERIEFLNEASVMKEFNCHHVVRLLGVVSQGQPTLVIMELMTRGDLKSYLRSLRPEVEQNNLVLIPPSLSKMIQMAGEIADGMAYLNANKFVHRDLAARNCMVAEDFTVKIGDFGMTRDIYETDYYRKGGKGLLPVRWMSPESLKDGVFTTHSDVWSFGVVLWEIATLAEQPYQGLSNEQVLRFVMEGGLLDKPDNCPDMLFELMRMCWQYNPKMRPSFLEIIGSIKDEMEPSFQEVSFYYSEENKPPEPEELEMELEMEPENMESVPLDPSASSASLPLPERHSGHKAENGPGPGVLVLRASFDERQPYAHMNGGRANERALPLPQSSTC
compound,measurement,setting,value
COc1cc([C@@H]2c3cc4c(cc3[C@H](O)[C@H]3COC(=O)[C@@H]23)OCO4)cc(OC)c1OC [picropodophyllin],IGF1 receptor expression level,[1],nearly complete down-regulation
same,growth of miR-223+/+ and miR-223-/- eosinophil cultures,[2],inhibited
same,growth of miR-223+/+ and miR-223-/- eosinophil cultures,[2]; listed as pricopodphyllin,inhibits
same,increased proliferation seen in miR-223-/- cultures,"[2]; 2 μM picropodophyllin, miR-223-/- vs miR-223+/+ cultures",completely reversing
IL-13: cytokine used at 100 ng/mL to stimulate human esophageal and bronchial epithelial cells,miR-375 expression,[3],down-regulated
same,miR-375 expression,[4],down-regulated
CCC(=O)O[C@]1(C(=O)SCF)[C@H](C)C[C@H]2[C@@H]3C[C@H](F)C4=CC(=O)C=C[C@]4(C)[C@@]3(F)[C@@H](O)C[C@@]21C [fluticasone propionate],miR-375 levels in esophageal tissue,[5],comparable to normal healthy controls
